Assay results reported in patent publication US6544985B2, “Dihydro-benzo [b][1,4]diazepin-2-one derivatives” (Hoffman-La Roche Inc., priority 2001, dated 2003).

Row | melting point [°C] | Compound
1 | 178 | CC(C)N(C)c1cc2c(cc1C(F)(F)F)NC(=O)CC(c1cccc(-n3nncc3CNC3CC3)c1)=N2 [Example 157, 4-[3-(5-Cyclopropylaminomethyl-[1,2,3]triazol-1-yl)-phenyl]-7-(isopropyl-methyl-amino)-8-trifluoromethyl-1,3-dihydro-benzo[b][1,4]diazepin-2-one]
2 | 164 | Cc1cc2c(cc1N(C)CC(C)C)N=C(c1cccc(-n3ncnc3CN3CCCC3)c1)CC(=O)N2 [Example 158, 7-(Isobutyl-methyl-amino)-8-methyl-4-[3-(5-pyrrolidin-1-ylmethyl-[1,2,4]triazol-1-yl)-phenyl]-1,3-dihydro-benzo[b][1,4]diazepin-2-one]
3 | 114 | Cc1cc2c(cc1N(C)CC(C)C)N=C(c1cccc(-n3ncnc3CNC3CC3)c1)CC(=O)N2 [Example 159, 4-[3-(5-Cyclopropylaminomethyl-[1,2,4]triazol-1-yl)-phenyl]-7-(isobutyl-methyl-amino)-8-methyl-1,3-dihydro-benzo[b][1,4]diazepin-2-one]
4 | 225 | Cc1cc(-c2cccc(C3=Nc4cc(NC(C)C)c(Cl)cc4NC(=O)C3)c2)on1 [Example 160, 8-Chloro-7-isopropylamino-4-[3-(3-methyl-isoxazol-5-yl)-phenyl]-1,3-dihydro-benzo[b][1,4]diazepin-2-one]
5 | 250 | CC(C)Nc1cc2c(cc1Cl)NC(=O)CC(c1cccc(-n3nncc3CO)c1)=N2 [Example 161, 8-Chloro-4-[3-(5-hydroxymethyl-[1,2,3]triazol-1-yl)-phenyl]-7-isopropylamino-1,3-dihydro-benzo[b][1,4]diazepin-2-one]
6 | 192 | CCCN(C)c1cc2c(cc1Cl)NC(=O)CC(c1cccc(-n3ncnc3CO)c1)=N2 [Example 162, 8-Chloro-7-(methyl-propyl-amino)-4-[3-(5-hydroxymethyl-[1,2,4]triazol-1-yl)-phenyl]-1,3-dihydro-benzo[b][1,4]diazepin-2-one]
7 | 183 | CCCN(C)c1cc2c(cc1Cl)NC(=O)CC(c1cccc(-n3ncnc3CN3CCCC3)c1)=N2 [Example 164, 8-Chloro-7-(methyl-propyl-amino)-4-[3-(5-pyrrolidin-1-ylmethyl-[1,2,4]triazol-1-yl)-phenyl]-1,3-dihydro-benzo[b][1,4]diazepin-2-one]
8 | 164 | CC(C)CN(C)c1cc2c(cc1Cl)NC(=O)CC(c1cccc(-n3ncnc3CN3CCCC3)c1)=N2 [Example 165, 8-Chloro-7-(isobutyl-methyl-amino)-4-[3-(5-pyrrolidin-1-ylmethyl-[1,2,4]triazol-1-yl)-phenyl]-1,3-dihydro-benzo[b][1,4]diazepin-2-one]
9 | 170 | CCCN(C)c1cc2c(cc1Cl)NC(=O)CC(c1cccc(-n3ncnc3CN(C)C)c1)=N2 [Example 166, 8-Chloro-4-[3-(5-dimethylaminomethyl-[1,2,4]triazol-1-yl)-phenyl]-7-(methyl-propyl-amino)-1,3-dihydro-benzo[b][1,4]diazepin-2-one]
10 | 123 | CCCN(C)c1cc2c(cc1Cl)NC(=O)CC(c1cccc(-n3ncnc3CNC3CC3)c1)=N2 [Example 167, 8-Chloro-4-[3-(5-cyclopropylaminomethyl-[1,2,4]triazol-1-yl)-phenyl]-7-(methyl-propyl-amino)-1,3-dihydro-benzo[b][1,4]diazepin-2-one]
11 | 191 | Cc1cc2c(cc1N(C)CC(C)C)N=C(c1cccc(-n3ncnc3CO)c1)CC(=O)N2 [Example 168, 4-[3-(5-Hydroxymethyl-[1,2,4]triazol-1-yl)-phenyl]-7-(isobutyl-methyl-amino)-8-methyl-1,3-dihydro-benzo[b][1,4]diazepin-2-one]
12 | 147 | CCCN(C)c1cc2c(cc1C(F)(F)F)NC(=O)CC(c1cccc(-n3ccnn3)c1)=N2 [Example 170, 7-(Methyl-propyl-amino)-4-(3-[1,2,3]triazol-1-yl-phenyl)-8-trifluoromethyl-1,3-dihydro-benzo[b][1,4]diazepin-2-one]
13 | 182 | CC(C)CN(C)c1cc2c(cc1C(F)(F)F)NC(=O)CC(c1cccc(-n3cccn3)c1)=N2 [Example 171, 7-(Isobutyl-methyl-amino)-4-(3-pyrazol-1-yl-phenyl)-8-trifluoromethyl-1,3-dihydro-benzo[b][1,4]diazepin-2-one]
14 | 189 | CC(C)N(C)c1cc2c(cc1C(F)(F)F)NC(=O)CC(c1ccnc(C#N)c1)=N2 [Example 172, 4-[8-(Isopropyl-methyl-amino)-4-oxo-7-trifluoromethyl-4,5-dihydro-3H-benzo[b][1,4]diazepin-2-yl]-pyridine-2-carbonitrile]
15 | 213 | CC(C)CN(C)c1cc2c(cc1Cl)NC(=O)CC(c1cccc(-n3cncn3)c1)=N2 [Example 173, 8-Chloro-7-(isobutyl-methyl-amino)-4-(3-[1,2,4]triazol-1-yl-phenyl)-1,3-dihydro-benzo[b][1,4]diazepin-2-one]
16 | 85 | CC(C)CN(C)c1cc2c(cc1Cl)NC(=O)CC(c1cccc(-n3ccnn3)c1)=N2 [Example 175, 8-Chloro-7-(isobutyl-methyl-amino)-4-(3-[1,2,3]triazol-1-yl-phenyl)-1,3-dihydro-benzo[b][1,4]diazepin-2-one]

Row | melting point [°C] | Compound
17 | 202 | CC(C)CN(C)c1cc2c(cc1C(F)(F)F)NC(=O)CC(c1cccc(-n3ccnn3)c1)=N2 [Example 176, 7-(Isobutyl-methyl-amino)-4-(3-[1,2,3]triazol-1-yl-phenyl)-8-trifluoromethyl-1,3-dihydro-benzo[b][1,4]diazepin-2-one]
18 | 221 | CC(C)CNc1cc2c(cc1C(F)(F)F)NC(=O)CC(c1cccc(-n3ccnc3)c1)=N2 [Example 177, 4-(3-Imidazol-1-yl-phenyl)-7-isobutylamino-8-trifluoromethyl-1,3-dihydro-benzo[b][1,4]diazepin-2-one]
19 | 212 | CC(C)CNc1cc2c(cc1Cl)NC(=O)CC(c1cccc(-n3ccnc3)c1)=N2 [Example 178, 8-Chloro-4-(3-imidazol-1-yl-phenyl)-7-isobutylamino-1,3-dihydro-benzo[b][1,4]diazepin-2-one]
20 | 249 | CC(C)CNc1cc2c(cc1Cl)NC(=O)CC(c1cccc(-n3ccnn3)c1)=N2 [Example 179, 8-Chloro-7-(isobutyl-amino)-4-(3-[1,2,3]triazol-1-yl-phenyl)-1,3-dihydro-benzo[b][1,4]diazepin-2-one]
21 | 212 | CC(C)CNc1cc2c(cc1C(F)(F)F)NC(=O)CC(c1cccc(-n3ccnn3)c1)=N2 [Example 180, 7-(Isobutyl-amino)-4-(3-[1,2,3]triazol-1-yl-phenyl)-8-trifluoromethyl-1,3-dihydro-benzo[b][1,4]diazepin-2-one]
22 | 222 | CC(C)CNc1cc2c(cc1Cl)NC(=O)CC(c1cccc(-n3cncn3)c1)=N2 [Example 181, 8-Chloro-7-(isobutyl-amino)-4-(3-[1,2,4]triazol-1-yl-phenyl)-1,3-dihydro-benzo[b][1,4]diazepin-2-one]
23 | 191 | CC(C)CNc1cc2c(cc1C(F)(F)F)NC(=O)CC(c1cccc(-n3cncn3)c1)=N2 [Example 182, 7-(Isobutyl-amino)-4-(3-[1,2,4]triazol-1-yl-phenyl)-8-trifluoromethyl-1,3-dihydro-benzo[b][1,4]diazepin-2-one]
24 | 136 to 137 | CCN(C)c1cc2c(cc1Cl)NC(=O)CC(c1cccc(-c3nc(CO)cs3)c1)=N2 [Example 183, 8-Chloro-7-(ethyl-methyl-amino)-4-[3-(4-hydroxymethyl-thiazol-2-yl)-phenyl]-1,3-dihydro-benzo[b][1,4]diazepin-2-one]
25 | 211 to 213 | CCCN(C)c1cc2c(cc1Cl)NC(=O)CC(c1cccc(-c3nc(CO)cs3)c1)=N2 [Example 184, 8-Chloro-4-[3-(4-hydroxymethyl-thiazol-2-yl)-phenyl]-7-(methyl-propyl-amino)-1,3-dihydro-benzo[b][1,4]diazepin-2-one]
26 | 193 to 195 | CC(C)N(C)c1cc2c(cc1Cl)NC(=O)CC(c1cccc(-c3nc(CO)cs3)c1)=N2 [Example 185, 8-Chloro-4-[3-(4-hydroxymethyl-thiazol-2-yl)-phenyl]-7-(isopropyl-methyl-amino)-1,3-dihydro-benzo[b][1,4]diazepin-2-one]
27 | 165 to 166 | CCN(C)c1cc2c(cc1Cl)NC(=O)CC(c1cccc(-c3nc(CO)co3)c1)=N2 [Example 187, 8-Chloro-7-(ethyl-methyl-amino)-4-[3-(4-hydroxymethyl-oxazol-2-yl)-phenyl]-1,3-dihydro-benzo[b][1,4]diazepin-2-one]
28 | 166 to 167 | CCCN(C)c1cc2c(cc1Cl)NC(=O)CC(c1cccc(-c3nc(CO)co3)c1)=N2 [Example 188, 8-Chloro-4-[3-(4-hydroxymethyl-oxazol-2-yl)-phenyl]-7-(methyl-propyl-amino)-1,3-dihydro-benzo[b][1,4]diazepin-2-one]
29 | 143 to 145 | CC(C)N(C)c1cc2c(cc1Cl)NC(=O)CC(c1cccc(-c3nc(CO)co3)c1)=N2 [Example 189, 8-Chloro-4-[3-(4-hydroxymethyl-oxazol-2-yl)-phenyl]-7-(isopropyl-methyl-amino)-1,3-dihydro-benzo[b][1,4]diazepin-2-one]
30 | 166 to 167 | CC(C)CN(C)c1cc2c(cc1Cl)NC(=O)CC(c1cccc(-c3nc(CO)co3)c1)=N2 [Example 190, 8-Chloro-4-[3-(4-hydroxymethyl-oxazol-2-yl)-phenyl]-7-(isobutyl-methyl-amino)-1,3-dihydro-benzo[b][1,4]diazepin-2-one]
31 | 129 to 130 | CNCc1csc(-c2cccc(C3=Nc4cc(N(C)C)c(Cl)cc4NC(=O)C3)c2)n1 [Example 191, 8-Chloro-7-dimethylamino-4-[3-(4-methylaminomethyl-thiazol-2-yl)-phenyl]-1,3-dihydro-benzo[b][1,4]diazepin-2-one]
32 | 138 to 143 | CN(C)c1cc2c(cc1Cl)NC(=O)CC(c1cccc(-c3nc(CN4CCOCC4)cs3)c1)=N2 [Example 192, 8-Chloro-7-dimethylamino-4-[3-(4-morpholin-4-ylmethyl-thiazol-2-yl)-phenyl]-1,3-dihydro-benzo[b][1,4]diazepin-2-one]
